{"source": "patent US8188093B2", "about": "“Pyrazinecarboxamide derivatives as HDL-cholesterol raising agents” (Hoffmann-La Roche Inc., priority 2006, dated 2012)", "key": {"[1]": {"system": "obese male Sprague Dawley rats", "test": "Effects on plasma lipid levels (HDL cholesterol) in obese, high fat diet fed rats", "type": "in vivo, rat", "conditions": "28-29 days", "procedure": "Efficacy of compounds in modulating plasma lipid levels was determined also in obese male Sprague Dawley rats after 28-29 days administration of compounds. Male Sprague-Dawley rats of 10 weeks of age were fed a high fat diet during 3 weeks. Obese rats were distributed in groups according to homogeneous BW and FI evaluated a week before the start of the treatment. Treatment was administered as food-Admix. On day 29, blood was taken in the morning under slight anesthesia (retro-orbital method) in post-prandial conditions i.e. 4 h after food was removed. Plasma was separated from blood by low speed centrifugation and selected organs were taken (e.g. liver, fat). Total cholesterol, HDL-cholesterol, and triglycerides were determined by measuring total cholesterol, HDL-cholesterol and triglyceride using colorimetric enzymatic assays (Roche Diagnostic GmbH, Mannheim, Germany). HDL-C was also quantified using size exclusion chromatography on superpose-6 column using a SMART system (Pharmacia). Lipoprotein distribution was calculated assuming a Gaussian distribution for each peak, using a nonlinear, least-squares curve-fitting procedure to calculate the area under the curve (AUC). Compound concentration was also determined in plasma."}, "[2]": {"system": "lean, chow-fed male Sprague-Dawley rats", "test": "Effects on plasma lipid levels (HDL cholesterol) in lean, chow fed rats", "type": "in vivo, rat", "conditions": "30 mg/kg p.o. of compound, once daily for five days, size exclusion chromatography AUC", "procedure": "Effects of compounds of formula I on plasma lipid levels were determined in lean, chow-fed male Sprague-Dawley rats with compounds administered by p.o. gavage. After one week of acclimation, blood samples were collected from 4 hour-fasted animals for plasma lipid determination. Animals were then assigned to treatment groups based on HDL-cholesterol levels. Compounds of formula I were administered by gavage, once daily for five days. Control animals received vehicle alone. Blood was collected on day five from 4 hour-fasted rats, 2 hours after a final treatment, for plasma lipid analysis. Total cholesterol, HDL-cholesterol, and triglycerides were determined by measuring total cholesterol, HDL-cholesterol, and triglyceride using colorimetric enzymatic assays (Roche Diagnostic GmbH, Mannheim, Germany). HDL-C was also quantified using size exclusion chromatography on superpose-6 column using a SMART system (Pharmacia). Lipoprotein distribution was calculated assuming a Gaussian distribution for each peak, using a nonlinear, least-squares curve-fitting procedure to calculate the area under the curve (AUC). Compound concentration was also determined in plasma."}, "hamsters": {"system": "hamsters", "test": "Effects on plasma lipid levels (HDL cholesterol) in hamsters", "type": "in vivo, hamster", "conditions": "30 mg/kg po of compound, once daily for five days", "procedure": "Efficacy of compounds in modulating plasma lipid levels was determined in hamsters after 5 days of daily administration of compounds. Male hamsters of 6-8 weeks of age were used in the studies. After one week of acclimation, blood samples were collected from 4 hour-fasted animals for plasma lipid determination. Animals were then assigned to treatment groups based on HDL-cholesterol levels. Compounds were administered by gavage, once daily for five days. Control animals received vehicle alone. Blood was collected on day five from 4 hour-fasted hamsters, 2 hours after a final treatment, for plasma lipid analysis. Total cholesterol, HDL-cholesterol, LDL-cholesterol, and triglycerides were determined using colorimetric enzymatic assays (Roche Diagnostic GmbH, Mannheim, Germany). HDL-cholesterol, LDL-cholesterol, and VLDL-cholesterol levels were also quantified using size exclusion chromatography on superpose-6 column using a SMART system (Pharmacia). Lipoprotein distribution was calculated assuming a Gaussian distribution for each peak, using a nonlinear, least-squares curve-fitting procedure to calculate the area under the curve. Compound concentration was also determined in plasma."}, "[3]": {"conditions": "30 mg/kg food admix of compound"}}}
{"smiles": "CCCCOc1ncc(C(=O)N[C@@H]2CCCC[C@H]2O)cc1-c1cc(C(F)(F)F)ccc1F", "values": [{"measurement": "melting point", "result": "172 to 178", "unit": "°C"}]}
{"smiles": "O=C(N[C@@H]1CCCC[C@H]1O)c1cnc(OCC2CC2)c(-c2ccc(Cl)cc2)c1", "note": "[5-(4-chloro-phenyl)-6-cyclopropylmethoxy-N-((1R,2R)-2-hydroxy-cyclohexyl)-nicotinamide]", "values": [{"measurement": "HDL Cholesterol levels [AUC as % compared to control]", "setting": "[1]; [3]", "result": "+84%"}, {"measurement": "HDL Cholesterol levels [AUC as % compared to control]", "setting": "[2]", "result": "+30%"}]}
{"smiles": "O=C(N[C@@H]1CCCC[C@H]1O)c1cnc(OCC(F)(F)F)c(-c2ccc(Cl)cc2)c1", "note": "[5-(4-chloro-phenyl)-N-((1R,2R)-2-hydroxy-cyclohexyl)-6-(2,2,2-trifluoroethoxy)-nicotinamide]", "values": [{"measurement": "HDL Cholesterol levels [AUC as % compared to control]", "setting": "hamsters", "result": "+69%"}, {"measurement": "HDL Cholesterol levels [AUC as % compared to control]", "setting": "[2]", "result": "+78%"}]}
{"smiles": "COCCOc1ncc(C(=O)N[C@@H]2CCCC[C@H]2O)cc1-c1ccc(Cl)cc1", "note": "[5-(4-chloro-phenyl)-N-((1R,2R)-2-hydroxy-cyclohexyl)-6-(2-methoxy-ethoxy)-nicotinamide]", "values": [{"measurement": "HDL Cholesterol levels [AUC as % compared to control]", "setting": "[1]; [3]", "result": "+50%"}]}
{"smiles": "O=C(N[C@@H]1CCCC[C@H]1O)c1cnc(OCC2CC2)c(-c2ccc(F)cc2)c1", "note": "[6-cyclopropylmethoxy-5-(4-fluoro-phenyl)-N-((1R,2R)-2-hydroxy-cyclohexyl)-nicotinamide]", "values": [{"measurement": "HDL Cholesterol levels [AUC as % compared to control]", "setting": "[2]", "result": "+35%"}]}
{"smiles": "O=C(N[C@@H]1CCCC[C@H]1O)c1cnc(Oc2ccccc2Cl)c(-c2ccc(Cl)cc2)n1", "note": "[Example 39, 5-(2-Chloro-phenoxy)-6-(4-chloro-phenyl)-pyrazine-2-carboxylic acid ((1R,2R)-2-hydroxy-cyclohexyl)-amide]", "values": [{"measurement": "melting point", "result": "154 to 155", "unit": "°C"}]}
{"smiles": "C[C@](O)(CNC(=O)c1cnc(OCC2CC2)c(-c2ccc(F)cc2)c1)C1CC1", "note": "[N—((R)-2-cyclopropyl-2-hydroxy-propyl)-6-cyclopropylmethoxy-5-(4-fluorophenyl)-nicotinamide]", "values": [{"measurement": "HDL Cholesterol levels [AUC as % compared to control]", "setting": "[2]", "result": "+73%"}]}
{"smiles": "Cc1c(C(=O)NN2CCCCC2)nn(-c2ccc(Cl)cc2Cl)c1-c1ccc(Cl)cc1", "note": "[Rimonabant, reference compound]", "values": [{"measurement": "HDL Cholesterol levels [AUC as % compared to control]", "setting": "[1]; 10 mg/kg food admix", "result": "+11%"}]}
